In one assay the target is T1, VEGFR/KDR (Homo sapiens, UniProt P35968).
T1 construct: made in house; host or cells: Sf9 cells (Spodoptera frugiperda), baculovirus
Description: VEGFR/KDR kinase inhibition, DELFIA assay. It is filed as biochemical. As to conditions: ATP 0.6 uM (2x Km), enzyme 5 nM. In a few lines: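 DELFIA time-resolved fluorescence readout using Europium-tagged anti-phosphotyrosine antibody after EDTA stop. Kinase reaction on plate-bound poly(Glu4,Tyr) ran 10-30 min at 30° C with 5 nM enzyme and 0.6 uM ATP (2× Km), following 4 min on-ice pre-incubation with compound; IC50 over a concentration range.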

The test system of a further assay is CNV progression. As to the kind of experiment: In vivo choroidal neovascularization (CNV) model, laser-induced, intravitreal injection. Also on record: species or system Male Brown-Norway rats. As to conditions: rat, 10 nmol/eye injected on Day 3, CNV area on Day 10, vs vehicle; for inhibition in vivo at 10 nmol/eye: 240 h. The text has this: This test measures the capacity of compounds to inhibit CNV progression. CNV is the main cause of severe vision loss in patients suffering from age-related macular degeneration (AMD).
Male Brown-Norway rats (Japan Clea Co., Ltd.) were used in these studies.
Rats were anesthetized by intraperitoneal injection of pentobarbital, and the right pupil was dilated with 0.5% tropicamide and 0.5% phenylephrine hydrochloride. The right eye received 6 laser burns between retinal vessels using a slit lamp delivery system of Green laser Photocoagulator (Nidex Inc., Japan), and microscope slide glass with Healon™ (AMO Inc) used as a contact lens. The laser power was 100 or 200 mW for 0.1 second and spot diameter was 100 μm. At the time of laser burn, bubble production was observed, which is an indication of rupture of Bruch's membrane which is important for CNV generation.
Rats were divided into the groups based on their body weight using SAS software (SAS institute Japan, R8.1) after laser irradiation (Day 0). After animals were anesthetized, and the right pupil dilated (as above mentioned), the right eye of the animal received the compound or vehicle by an injection (10 μL/eye) at doses of 10 or 3 nmol/eye on Day 3. The compounds were dissolved or suspended in CBS, PBS, or other adequate vehicles before injection.
On Day 10, the animals were anesthetized with ether, and high molecular weight fluorescein isothiocyanate (FITC)-dextran (SIGMA, 2×10^6 MW) was injected via a tail vein (20 mg/rat). About 30 min after FITC-dextran injection, animals were euthanized by ether or carbon dioxide, and the eyes were removed and fixed with 10% formaline neutral buffer solution. After over 1 hour of fixation, RPE-choroid-sclera flat mounts were obtained by removing cornea, lens and retina from the eyeballs. The flat mounts were mounted in 50% glycerol on a microscope slide, and the portion burned by laser was photographed using a fluorescence microscope (Nikon Corporation, excitation filter:465-495 nm, absorption filter:515-555 nm). The CNV area was obtained by measurement of hyper-fluorescence area observed on the photograph using Scion image.
The average CNV area of 6 burns was used as an individual value of CNV area, and the average CNV area of compound treated group was compared with that of the vehicle-treated group.

A value given as a limit tells only on which side of the number the result lay.

T1 sequence (P35968 806-1356): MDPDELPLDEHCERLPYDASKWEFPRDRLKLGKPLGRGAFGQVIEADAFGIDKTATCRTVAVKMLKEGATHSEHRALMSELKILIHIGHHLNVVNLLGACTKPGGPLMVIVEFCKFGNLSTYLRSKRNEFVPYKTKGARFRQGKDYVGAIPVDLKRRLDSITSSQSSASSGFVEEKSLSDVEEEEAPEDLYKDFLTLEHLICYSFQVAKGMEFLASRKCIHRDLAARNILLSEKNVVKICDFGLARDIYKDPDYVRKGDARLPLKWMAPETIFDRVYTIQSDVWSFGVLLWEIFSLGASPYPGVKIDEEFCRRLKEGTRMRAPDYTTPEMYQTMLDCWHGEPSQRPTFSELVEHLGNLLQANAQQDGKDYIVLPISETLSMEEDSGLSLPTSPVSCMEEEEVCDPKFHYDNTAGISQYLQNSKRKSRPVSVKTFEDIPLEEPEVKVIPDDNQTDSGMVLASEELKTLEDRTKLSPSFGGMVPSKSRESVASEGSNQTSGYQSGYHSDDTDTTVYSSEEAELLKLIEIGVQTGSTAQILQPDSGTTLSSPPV

The IC50 is the concentration that gives 50% inhibition. Read a high IC50 as lower potency. For orientation: inhibition in vivo means the relative decrease from the control value, in per cent. Higher therefore signals a response far below the control. Consider `O=C(Nc1ccc(Oc2ccnc3cc(-c4ccc(CN5CCCS5(=O)=O)cn4)sc23)c(F)c1)NC1CC1` [Compound 142, 1-cyclopropyl-3-(3-fluoro-4-(2-(5-(2,2-dioxo-2-thiapyrrolidin-1-ylmethyl)pyridin-2-yl)thieno[3,2-b]pyridin-7-yloxy)phenyl)urea], for which, on VEGFR/KDR, the IC50 was below 50 nM. The inhibition in vivo at 10 nmol/eye in the assay with CNV progression was 40 to 60%.

`COCCOCCOCCOCCN(Cc1ccc(-c2cc3nccc(Oc4ccc(NC(=O)NC5CC5)cc4F)c3s2)nc1)C(=O)CO` [Compound 45] came in with a half-inhibitory concentration (IC50) against VEGFR/KDR below 50 nM. The compound also came in with an inhibition in vivo at 10 nmol/eye in the assay on CNV progression of 40 to 60%.

At VEGFR/KDR, `CNC(=O)N(CCOC)Cc1ccc(-c2cc3nccc(Oc4ccc(NC(=O)NC5CC5)cc4F)c3s2)nc1` [Compound 3, N-[3-((6-(7-(4-(3-cyclopropylureido)-2-fluorophenoxy)thieno[3,2-b]pyridin-2-yl)pyridin-3-yl)methyl)]-N-(1-methyl)-N-[3-(2-methoxyethyl)]urea] gave a half-maximal inhibitory concentration (IC50) below 50 nM. The “Inhibition of CNV progression” value in the assay with CNV progression was “A (greater than or equal to 60% inhibition)”.

For `CC(=O)N(CCS(C)(=O)=O)Cc1ccc(-c2cc3nccc(Oc4ccc(NC(=O)NC5CC5)cc4F)c3s2)nc1` [Compound 43, N-((6-(7-(4-(3-cyclopropylureido)-2-fluorophenoxy)thieno[3,2-b]pyridin-2-yi)pyridin-3-yl)methyl)-N-(2-(methylsulfonyl)ethyl)acetamide], on VEGFR/KDR, the IC50 was below 50 nM. Moreover, in the assay on CNV progression, the inhibition in vivo at 10 nmol/eye was in the range of 40 to 60%.

With `COCCNCc1ccc(-c2cc3nccc(Oc4ccc(NC(=O)NC5CC5)c(F)c4F)c3s2)nc1` [Compound 25, 1-cyclopropyl-3-(2,3-difluoro-4-(2-(5-((2-methoxyethylamino)methyl)pyridin-2-yl)thieno[3,2-b]pyridin-7-yloxy)phenyl)urea], the IC50 against VEGFR/KDR was below 50 nM. In the assay with CNV progression, the inhibition in vivo at 10 nmol/eye was at least 60%.

Compound `O=C(Nc1ccc(Oc2ccnc3cc(-c4ccc(CNCCO)cn4)sc23)c(F)c1)NC1CC1` [Compound 9, 1-cyclopropyl-3-(3-fluoro-4-(2-(5-((2-hydroxyethylamino)methyl)pyridin-2-yl)-thieno[3,2-b]pyridin-7-yloxy)phenyl)urea] showed an IC50 on VEGFR/KDR below 50 nM. In the assay on CNV progression, this compound had an inhibition in vivo at 10 nmol/eye of at least 60%.
